Test results published in patent US20250375528A1, “CONJUGATE OF CELL-PENETRATING PEPTIDE AND MELPHALAN, AND PREPARATION CONTAINING CONJUGATE” (priority 2021, published 2025).
Values after ≈ are worked out from the molar mass of the structure shown. Where two headings read alike, the source gives them in different places. Where a SMILES comes first, the peptide text is derived from it. Where no end group is shown, it is not given here. [ ]: non-standard residue; d: D form. ξ: configuration not given here. ξPhe(4-N(CH2CH2Cl)2) = NC(Cc1ccc(N(CCCl)CCCl)cc1)C(=O)O

Assays:
HCEC cells [1] = experiment: cells; type: cell-based; settings: 4 hrs co-incubation then 24 h fresh medium, MTT
Experimental: The survivals of the HCEC, ARPE-19 and WERI-Rb-1 cells after co-incubation with polypeptides or conjugates were investigated by the MTT or CCK-8 methods (n=4). The HCEC or ARPE-19 cells were co-incubated with polypeptides or conjugates for 4 hrs, followed by incubation in fresh medium for 24 h before addition of MTT for detection. The WERI-Rb-1 cells were co-incubated with the polypeptides or conjugates for 4 hrs, and then CCK-8 was added directly for detection. The cells under normal culture conditions were used as negative control (100% survival).
(§1) The ARPE-19 and WERI-Rb-1 cells with good growth status in the logarithmic phase were placed on 96 well plates at a density of 2000 cells/well. After incubation for 24 hrs, the drug solutions at different concentrations were added. The ARPE-19 cells were incubated at 37° C. for 4 hrs. Then, the drug solutions were discarded. The plates were washed with PBS thrice. The fresh medium was then added and incubated for 24 h. Then, 0.5 mg/mL MTT was added and incubated at 37° C. for 4 hrs. The culture solution was discarded. To each well DMSO (150 μl) was added, and the plates were shaken on a shaker for 20 min. Then, the OD490nm value was measured. For the WERI-Rb-1 cells, they were incubated with drug solutions for 4 hrs, and CCK-8 reagent (10 μL) was added to each well. The plates were incubated at 37° C. for 2 hrs. The OD490nm value was measured directly. In addition, zero_adjustment wells and negative control wells (cell survival rate 100%) were set.

ARPE-19 cells [2] = type: cell-based; settings: ARPE-19, 4 hrs co-incubation then 24 h fresh medium, MTT
Experimental: as §1

[3] = tested on: retinoblastoma (Fluc/GFP-Rb-1) cells; experiment: Eye drops for treatment of intraocular retinoblastoma, mouse model; type: in vivo, Balb/c nude mice; settings: for mice with obvious tumor areas in the brain sections: 8 mice per group
Experimental: Construction of retinoblastoma mouse model: the male Balb/c nude mice (18-20 g) were subjected to general anesthesia by intraperitoneal injection of amobarbital sodium (30 mg/kg). The 0.4% oxybuprocaine hydrochloride was administrated for local anesthesia of the eye surface. After the anesthesia, the 0.5% tropicamide was administrated for pupil dilation. The retinoblastoma (Fluc/GFP-Rb-1) cells (resuspended in 2 μL 10 mM PBS, 2×10^4 cells for each mouse) were slowly injected into the vitreous body near retina via a micro-syringe (33 G, Hamilton). After the injection, 0.25% chloramphenicol was dropped to the ocular surface to prevent ocular inflammation. Then, it is determined whether the model was successfully established according to the bioluminescent signal intensity in the eyes of the mice. The successfully established model mice were randomly divided into 4 groups, with 8 mice in each group.
During the 60-day pharmacodynamic evaluation experiment, the dosage regimens for the different mice groups are as follows: Group 1: eye dropping with normal saline once a day, 10 μL for each dropping; Group 2: eye dropping with 3.0 mg/mL melphalan solution once a day, 10 μL for each dropping; Group 3: eye dropping with 89WP-Mel solution (containing 3.0 mg/mL melphalan) once a day, 10 μL for each dropping; Group 4: intravitreal injection with 0.5 mg/mL melphalan solution once every two weeks, 2 μL for each injection.
The method of efficacy evaluation is as follows: on Day 0, 2, 4, 6, 9, 12, 15, 17, 20, 25 and 30 after the administration, the mice in each group were injected intraperitoneally with 150 mg/kg D-Luciferin, followed by anesthesia with isoflurane for 15 min. The bioluminescent signal intensity in the eyes of the mice was detected by IVIS Spectrum system (PerkinElmer, USA).

[4] = Solubility assay in normal saline (HPLC); type: physicochemical; settings: 37° C.
Experimental: Liquid chromatography detection conditions for melphalan: column: YMC-Pack ODS-A column (150×4.6 mm, 5 μm); mobile phase: 40% acetonitrile solution; flow rate: 0.7 mL/min; column temperature: 25° C.; detection wavelength: 260 nm; injection volume: 10 μL.
Solubility assay: melphalan 0.1 mg was accurately weighted and dispersed in 1 mL normal saline, ultrasonicated for 5 min, incubated at 37° C. for 24 hrs, and filtered through 0.22 μm filter membrane. The peak area of the sample was obtained by liquid chromatography. The concentration of the sample was calculated by substituting the peak area in the standard curve equation.
Liquid chromatography detection conditions for 89WP-Mel and 289WP-Mel: column: YMC-Pack ODS-A column (150×4.6 mm, 5 μm); mobile phase: 5-65% acetonitrile (with 0.1% TFA), 30 min; flow rate: 0.7 mL/min; column temperature: 25° C.; detection wavelength: 214 nm; injection volume: 10 μL.
Solubility assay: The excess amount of 89WP-Mel or 289WP-Mel was dispersed in 60 μL normal saline, ultrasonicated for 5 min, incubated at 37° C. for 24 hrs, filtered through 0.22 μm filter membrane, and then diluted 10 times and 20 times respectively. The peak area of the samples was obtained by liquid chromatography. The concentration of the samples was calculated by substituting the peak area in the standard curve equation.
The samples were incubated in normal saline at 37° C. and 160 rpm for 24 h to obtain the saturated solutions. The solubility of the conjugates is converted to the solubility of melphalan moiety.

Fluc/GFP-Rb-1 cells [5] = experiment: In vivo safety evaluation in orthotopic tumor-bearing mouse model
Experimental: Before the experiments, the healthy male Balb/c-nude mice (4 weeks old) were subjected to ophthalmic examination to ensure the normal eyes. Amobarbital sodium (40 mg/kg) was injected intraperitoneally to the mice for general anesthesia, the commercially available 0.4% oxybuprocaine hydrochloride eye drops were administrated to the surface of the eyes for local anesthesia of the eye surface, and the commercially available 0.5% tropicamide eye drops were administrated for pupil dilation. The Fluc/GFP-Rb-1 cells (resuspended in 10 mM PBS at a density of 1×10^4 cells/μL) were injected into the vitreous body of the mice via a micro-syringe (33 G, Hamilton), 2 μL cell suspension for each eye.
For the tumor-bearing mice, administration was performed by ocular surface dropping.
Detection scheme: At the end of 1 month administration, the mice were euthanized by an overdose of anesthesia (anaobarbital sodium, 150 mg/kg). The cardiac perfusion was performed sequentially with normal saline and 4% paraformaldehyde. The eyeballs, hearts, liver, spleen, lung, kidney, brain and other organs were harvested and dehydrated overnight in 15% and 30% sucrose solutions gradient. The HE stained sections and immunohistochemical sections were made and observed.

Fluc/GFP-Rb-1 cells [6] = experiment: Intraocular pharmacodynamic evaluation in tumor-bearing mice; type: in vivo
Experimental: Specifically, D-luciferin (150 mg/kg) was injected intraperitoneally into each mouse, followed by general anesthesia with isoflurane. Twenty minutes after anesthesia, ocular bioluminescence signals were collected, with 30 seconds exposure time. On the day of administration (D0) and at the corresponding time points after administration, the bioluminescence signals of the mice eyeballs in each group were collected. […] The whole brain tissue was harvested. The immunohistochemical sections were made and observed.

WERI-Rb-1 cells = type: cell-based; settings: WERI-Rb-1, 4 hrs co-incubation, CCK-8
Experimental: as §1

[7] = Hematology safety evaluation (complete blood cell count); type: in vivo, ICR mice; settings: eye dropping 2 times a day for 2 weeks
Experimental: Safety evaluation of 89WP-Mel eye drops: it is likely that the eye drops may be absorbed systemically, while the chemotherapeutic drug melphalan may cause systemic toxicity. The representative side effects include bone marrow suppression, etc. Thus, hematology evaluation was performed in the administration groups to determine the safety of the eye drops. Healthy male ICR mice (18-20 g) were subjected to the administration according to the regimen of pharmacodynamic evaluation experiment, wherein the frequency of eye dropping the normal saline, melphalan solution, and 89WP-Mel solution was changed to 2 times a day for 2 weeks, and the melphalan intravitreal injection was performed once a week. At the end of administration, 200 μL of whole blood was taken, anticoagulated with EDTA, and subjected to a complete blood cell count.

HCEC cells [8] = experiment: Intracellular distribution by laser confocal microscope; type: cell-based; settings: 3 μM, 37° C., 4 hrs
Experimental: (§2) The HCEC and ARPE-19 cells with good growth status in the logarithmic phase were placed in 4-chamber confocal dishes at a density of 1×10^4 cells/well and incubated for 24 hrs. The drug solutions (all comprising 3 μM fluorescein) were added and incubated at 37° C. for 3.5 hrs. LysoTracker was then added and incubated for 0.5 hrs. Then, the drug solutions were discarded. After being washed with cold 10 mM PBS (containing 0.02 mg/mL heparin sodium) thrice and fixed with 4% paraformaldehyde, the nuclei were stained with DAPI.

ARPE-19 cell monolayer = experiment: Penetration across the retinal pigment epithelial cell monolayer model; settings: four hours after administration, 3 μM
Experimental: The model in FIG. 8B is obtained by seeding the WERI-Rb-1 cells in good growth state at 2×10^4 cells/well in the lower chamber 24 hours before administration.
Samples (200 μL for each sampling) were taken every 0.5 h from the lower chamber, and 200 μL fresh D-Hank's balanced salt solution was added immediately. A total of 8 samples were taken. The fluorescence signal intensity of the samples was detected with a microplate reader (Ex 490 nm/Em 520 nm).
The calculation formula of the Apparent Permeability Coefficient (Papp) is as follows:
wherein, ΔQ/Δt is the change of the molar amount of the polypeptide across the retinal pigment epithelial cell monolayer model per unit time, which can be obtained from the slope by fitting the cumulative permeability and the diffusion time; C0 is the initial concentration of the polypeptide in the donor cell, which is 3 μM; A is the area of the cornea or sclera exposed to the diffusion medium, i.e., the effective diffusion area, which is 0.825 cm^2.

[9] = Ocular pharmacokinetic evaluation after eye dropping; type: in vivo, mice
Experimental: The distribution and elimination behavior of the conjugates in the eye tissues was investigated by dropping the drugs into the conjunctival sac of the mice. The conjugate solution 10 μL (at a concentration of 30 μM) was dropped into the conjunctival sac of the mice. The eyelids were gently closed to make the solution distributed evenly. […] The eyeballs were taken out and fixed with FAS eyeball fixative solution for 24 hours, dehydrated with 15% and 30% sucrose solution gradients, and then embedded in OCT to prepare 8 μm thick eyeball frozen sections. The cell nuclei were stained with DAPI.

ARPE-19 cells [10] = experiment: Intracellular distribution by laser confocal microscope; type: cell-based; settings: ARPE-19, 3 μM, 37° C., 4 hrs
Experimental: as §2

red blood cells = experiment: Ability to lyse red blood cells at different pH; type: cell-based
Experimental: The red blood cells were resuspended at a density of 7×10^7 cells/mL in incubation medium at different pHs. The cell suspension (75 μL) was mixed with 75 μL of aqueous solution of test sample. Pure water was set as a negative control, and 1 μL Triton X-100 dissolved in 74 μL pure water was set as a positive control. Incubation was performed at 37° C. for 1 h in an air shaker at 200 rpm. After incubation, the samples were centrifugated at 1000 g for 5 min. The supernatant (100 μL) was taken to measure the OD450 nm/750 nm via microplate reader.

[11] = intravitreal injection 0.5 mg/mL
[12] = saline or isotonic, thermodynamic from solid, read-out: Solubility of drug
[13] = read-out: Solubility of drug-polypeptide conjugate
[14] = four hours after dropping, 30 μM

N[C@@H](Cc1ccc(N(CCCl)CCCl)cc1)C(=O)O [melphalan]
IC50 (HCEC cells [1]; listed as Mel): 113 µM | IC50 (HCEC cells [1]; Homo sapiens): 100 to 200 µM | IC50 (ARPE-19 cells [2]): 100 to 200 µM | IC50 (ARPE-19 cells [2]; listed as Mel): 200 µM | mice with obvious tumor areas in the brain sections ([3]; eye dropping 3.0 mg/mL): 1 | anti-tumor effect in the first month of administration ([3]; eye drops once a day, 3.0 mg/mL melphalan content): no antitumor effect | mice with obvious tumor areas in the brain sections [3, 11]: 2 | solubility at 24 h [4, 12]: < 0.001 mg/mL | solubility thermodynamic at 24 h [4, 12]: < 0.001 mg/mL | size of the vitreous seeds of intraocular tumors, order of groups (Fluc/GFP-Rb-1 cells [5]; melphalan solution 3.0 mg/mL eye dropping): normal saline group≈melphalan solution eye dropping group | mice with obvious brain tumor areas (Fluc/GFP-Rb-1 cells [6]; eye dropping 3.0 mg/mL): one | tumor growth curve versus normal saline eye dropping group (Fluc/GFP-Rb-1 cells [6]; eye dropping 10 μl once a day, 3.0 mg/mL melphalan content): no significant difference | mice with obvious brain tumor areas (Fluc/GFP-Rb-1 cells [6]; [11]): two | survival period versus normal saline group (Fluc/GFP-Rb-1 cells [6]; intravitreal injection 0.5 mg/mL, 2 μL, once per two weeks): no significant difference

CC[C@H](C)[C@H](NC(=O)[C@H](CCCCN)NC(=O)[C@@H](NC(=O)[C@H](CCC(N)=O)NC(=O)[C@@H](N)CCCNC(=N)N)[C@@H](C)CC)C(=O)N[C@@H](Cc1c[nH]c2ccccc12)C(=O)N[C@@H](Cc1ccccc1)C(=O)N[C@@H](Cc1c[nH]c2ccccc12)C(=O)N[C@@H](Cc1c[nH]c2ccccc12)C(=O)N[C@@H](CCCNC(=N)N)C(=O)N[C@@H](CCCNC(=N)N)C(=O)N[C@@H](CCSC)C(=O)N[C@@H](CCCCN)C(=O)N[C@@H](Cc1c[nH]c2ccccc12)C(=O)N[C@@H](CCCCN)C(=O)N[C@@H](CCCCN)C(=O)NC(Cc1ccc(N(CCCl)CCCl)cc1)C(=O)O (stereo partly drawn) [89WP-Mel] (H-RQIKIWFWWRRMKWKK[ξPhe(4-N(CH2CH2Cl)2)]-OH)
IC50 (HCEC cells [1]; read-out: IC50): 147 µM | IC50 (WERI-Rb-1 cells): 0.28 µM | IC50 (ARPE-19 cells [2]; read-out: IC50): 177 µM | solubility at 24 h [4, 13]: 44.7 ± 2.62 mg/mL (≈ 16.8 mM) | platelet count versus normal saline eye dropping group [7]: did not significantly decrease | red blood cell count versus normal saline eye dropping group [7]: did not significantly decrease | white blood cell count versus normal saline eye dropping group [7]: did not significantly decrease | safety by HE-stained sections of the various organs (Fluc/GFP-Rb-1 cells [5]; eye dropping, 1 month): safe

CC[C@H](C)[C@H](NC(=O)[C@H](CCCCN)NC(=O)[C@@H](NC(=O)[C@H](Cc1c[nH]c2ccccc12)NC(=O)[C@@H](N)CCCNC(=N)N)[C@@H](C)CC)C(=O)N[C@@H](Cc1c[nH]c2ccccc12)C(=O)N[C@@H](Cc1ccccc1)C(=O)N[C@@H](Cc1c[nH]c2ccccc12)C(=O)N[C@@H](Cc1c[nH]c2ccccc12)C(=O)N[C@@H](CCCNC(=N)N)C(=O)N[C@@H](CCCNC(=N)N)C(=O)N[C@@H](CCSC)C(=O)N[C@@H](CCCCN)C(=O)N[C@@H](Cc1c[nH]c2ccccc12)C(=O)N[C@@H](CCCCN)C(=O)N[C@@H](CCCCN)C(=O)NC(Cc1ccc(N(CCCl)CCCl)cc1)C(=O)O (stereo partly drawn) [289WP-Mel] (H-RWIKIWFWWRRMKWKK[ξPhe(4-N(CH2CH2Cl)2)]-OH; N-terminus assumed)
solubility at 24 h [4, 13]: 41.8 ± 1.39 mg/mL (≈ 15.4 mM)

carboxyl fluorescein [FAM]
fluorescence signal in the cells (HCEC cells [8]): no obvious green fluorescence signal | fluorescence signal at the donor side of the cell monolayer (ARPE-19 cell monolayer): no green fluorescence signal | time of peak fluorescence intensity in the retina ([9]; 10 μL of 30 μM dropped into conjunctival sac): 4 h | retinal fluorescence intensity versus blank retina ([9]; 8 hours after eye dropping): no significant difference | fluorescence signal in anterior ocular segment (cornea), whole eye sections [9, 14]: no obvious green or red fluorescence signal | fluorescence signal in posterior ocular segment (retina), whole eye sections [9, 14]: no obvious green or red fluorescence signal | fluorescence signal in the cells (ARPE-19 cells [10]): no obvious green fluorescence signal

RQIKIWFWWRRMKWKK [89WP]
hemolysis ratio (red blood cells; pH 5.5, 40 μM): 16.4% | hemolysis ratio (red blood cells; pH 5.5, 640 μM): 45.1% | hemolysis ratio (red blood cells; pH 6.0, 160 μM): 21.7% | hemolysis ratio (red blood cells; pH 6.0, 640 μM): 33.3% | hemolysis ratio (red blood cells; pH 7.4, 640 μM): 25.8% | hemolysis ratio (red blood cells; pH 7.4, low concentration (<320 μM)): around 10%
